Legend:
[1] = Displacement of [20-3H]PDBu from GST-tagged mouse PKC-delta C1B domain N7R mutant expressed in Escherichia coli after 2 to 30 mins by polyethylene glycol precipitation assay in presence of phosphatidylserine
[2] = organism: Mus musculus; assay: Selectivity ratio of Ki for GST-tagged mouse PKC-delta C1B domain P11R mutant to Kd for GST-tagged full-length mouse PKC-delta C1B domain
[3] = organism: Mus musculus; assay: Selectivity ratio of Kd for GST-tagged full-length mouse PKC-delta C1B domain to Ki for GST-tagged mouse PKC-delta C1B domain P11R mutant
[4] = organism: Mus musculus; assay: Selectivity ratio of Ki for GST-tagged mouse PKC-delta C1B domain S10R mutant to Kd for GST-tagged full-length mouse PKC-delta C1B domain
[5] = Displacement of [20-3H]PDBu from GST-tagged mouse PKC-delta C1B domain S10R mutant expressed in Escherichia coli after 2 to 30 mins by polyethylene glycol precipitation assay in presence of phosphatidylserine
[6] = Displacement of [20-3H]PDBu from GST-tagged mouse PKC-delta C1B domain L20R mutant expressed in Escherichia coli after 2 to 30 mins by polyethylene glycol precipitation assay in presence of phosphatidylserine
[7] = molecular target: Protein kinase C delta type (Mus musculus, UniProt P28867); assay: Displacement of [20-3H]PDBu from GST-tagged full-length mouse PKC-delta C1B domain expressed in Escherichia coli after 2 to 30 mins by polyethylene glycol precipitation assay in presence of phosphatidylserine
[8] = organism: Mus musculus; assay: Selectivity ratio of Ki for GST-tagged mouse PKC-delta C1B domain L20R mutant to Kd for GST-tagged full-length mouse PKC-delta C1B domain
[9] = organism: Mus musculus; assay: Selectivity ratio of Ki for GST-tagged mouse PKC-delta C1B domain N7R mutant to Kd for GST-tagged full-length mouse PKC-delta C1B domain
[10] = Displacement of [20-3H]PDBu from GST-tagged mouse PKC-delta C1B domain P11R mutant expressed in Escherichia coli after 2 to 30 mins by polyethylene glycol precipitation assay in presence of phosphatidylserine
[11] = Displacement of [20-3H]PDBu from GST-tagged mouse PKC-delta C1B domain N7R/P11R mutant expressed in Escherichia coli after 2 to 30 mins by polyethylene glycol precipitation assay in presence of phosphatidylserine
[12] = Displacement of [20-3H]PDBu from GST-tagged mouse PKC-delta C1B domain N7R/L20R mutant expressed in Escherichia coli after 2 to 30 mins by polyethylene glycol precipitation assay in presence of phosphatidylserine
[13] = organism: Mus musculus; assay: Selectivity ratio of Ki for GST-tagged mouse PKC-delta C1B domain N7R/P11R mutant to Kd for GST-tagged full-length mouse PKC-delta C1B domain
[14] = organism: Mus musculus; assay: Selectivity ratio of Ki for GST-tagged mouse PKC-delta C1B domain N7R/L20R mutant to Kd for GST-tagged full-length mouse PKC-delta C1B domain
[15] = organism: Mus musculus; assay: Selectivity ratio of Ki for GST-tagged mouse PKC-delta C1B domain N7R/S10R/P11R mutant to Kd for GST-tagged full-length mouse PKC-delta C1B domain
[16] = Displacement of [20-3H]PDBu from GST-tagged mouse PKC-delta C1B domain N7R/S10R/P11R mutant expressed in Escherichia coli after 2 to 30 mins by polyethylene glycol precipitation assay in presence of phosphatidylserine
[17] = organism: Mus musculus; assay: Selectivity ratio of Ki for GST-tagged mouse PKC-delta C1B domain N7R/S10R/L20R mutant to Kd for GST-tagged full-length mouse PKC-delta C1B domain
[18] = Displacement of [20-3H]PDBu from GST-tagged mouse PKC-delta C1B domain N7R/S10R/L20R mutant expressed in Escherichia coli after 2 to 30 mins by polyethylene glycol precipitation assay in presence of phosphatidylserine

Protein kinase C delta type, sequence (P28867 whole entry, the tested form may be a part): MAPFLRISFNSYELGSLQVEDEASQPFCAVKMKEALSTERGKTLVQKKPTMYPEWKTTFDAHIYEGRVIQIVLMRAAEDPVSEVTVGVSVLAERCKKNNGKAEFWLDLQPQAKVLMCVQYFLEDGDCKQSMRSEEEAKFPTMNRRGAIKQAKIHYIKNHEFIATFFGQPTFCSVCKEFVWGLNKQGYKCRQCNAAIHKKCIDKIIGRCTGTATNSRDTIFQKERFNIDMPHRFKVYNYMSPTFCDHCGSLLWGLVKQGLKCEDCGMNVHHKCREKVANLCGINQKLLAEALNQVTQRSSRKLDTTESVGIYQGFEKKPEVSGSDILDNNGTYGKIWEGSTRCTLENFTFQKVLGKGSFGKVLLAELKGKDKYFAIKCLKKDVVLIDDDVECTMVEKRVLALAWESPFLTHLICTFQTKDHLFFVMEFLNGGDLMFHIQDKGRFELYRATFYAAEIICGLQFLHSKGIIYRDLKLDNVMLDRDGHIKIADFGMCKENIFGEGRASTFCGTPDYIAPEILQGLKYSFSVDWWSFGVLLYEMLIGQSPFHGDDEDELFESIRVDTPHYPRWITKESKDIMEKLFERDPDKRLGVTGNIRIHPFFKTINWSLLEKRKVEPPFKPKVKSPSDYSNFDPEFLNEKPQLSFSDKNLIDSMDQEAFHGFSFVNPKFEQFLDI

| SMILES | Selectivity ratio [2] | Selectivity ratio [3] | Selectivity ratio [4] | Kd [7] [nM] | Selectivity ratio [8] | Selectivity ratio [9] | Selectivity ratio [13] | Selectivity ratio [14] | Ki [1] [nM] | Ki [5] [nM] | Ki [6] [nM] | Ki [10] [nM] | Ki [11] [µM] | Ki [12] [µM] | Selectivity ratio [15] | Ki [16] [nM] | Selectivity ratio [17] | Ki [18] [nM] |
| --- | --- | --- | --- | --- | --- | --- | --- | --- | --- | --- | --- | --- | --- | --- | --- | --- | --- | --- |
| CC(C)CC(CC(=O)OCC1(CO)C/C(=C\c2cccc(C(=O)O)c2)C(=O)O1)CC(C)C (configuration not stated) | 0.33 | 3 | 1.56 | 300 | 5.33 | 0.94 | – | – | 281 | 468 | 1600 | 100 | – | – | – | – | – | – |
| CC(C)(C)C(=O)OCC1(CO)C/C(=C\c2cccc(C(=O)O)c2)C(=O)O1 (configuration not stated) | 2.79 | – | 1.46 | 1210 | 4.57 | 1.44 | 13.2 | 87 | 1740 | 1760 | 5500 | 3360 | 16 | 105 | – | – | – | – |
| CC(C)CC(CC(=O)OCC1(CO)C/C(=C\c2ccc(C(=O)O)cc2)C(=O)O1)CC(C)C (configuration not stated) | 1.25 | – | 0.98 | 96 | 7.7 | 1.25 | – | – | 120 | 94 | 739 | 120 | – | – | – | – | – | – |
| CC(C)C(CC(=O)OCC1(CO)C/C(=C\c2cccc(C(=O)O)c2)C(=O)O1)C(C)C (configuration not stated) | 0.2 | 5 | 0.4 | 2100 | 1.34 | 0.3 | 2.47 | 21.8 | 640 | 840 | 2820 | 421 | 5.19 | 45.9 | – | – | – | – |
| CCCC(=O)O[C@@H]1[C@@H](C)[C@@]2(O)[C@@H](C=C(CO)C[C@]3(O)C(=O)C(C)=C[C@@H]23)[C@@H]2C(C)(C)[C@]12OC(=O)CCC | – | – | – | 0.23 | – | – | – | – | 1.18 | 0.32 | 8 | – | 0.0338 | 0.48 | – | 19.6 | – | 1360 |
| CC(C)C(CC(=O)OCC1(CO)C/C(=C/c2ccc(C(=O)O)cc2)C(=O)O1)C(C)C (configuration not stated) | 1.09 | – | 0.57 | 865 | 3.25 | 0.55 | 3.25 | 60 | 473 | 496 | 2810 | 940 | 2.81 | 51.9 | – | – | – | – |
| CC(C)CC(C/C=C1\CC(CO)(COC(=O)C(C)(CO)CO)OC1=O)CC(C)C (configuration not stated) | 2.61 | – | 1.44 | 777 | 1.04 | 1.04 | 30.7 | 9.83 | 806 | 1120 | 810 | 2030 | 23.8 | 7.64 | 60.5 | 47000 | 10.1 | 7830 |
| CC(C)(C)C(=O)OCC1(CO)C/C(=C\c2ccc(C(=O)O)cc2)C(=O)O1 (configuration not stated) | 0.93 | – | 0.62 | 1070 | 5.74 | 0.82 | 3.49 | 78 | 880 | 667 | 6140 | 998 | 3.7 | 83.4 | – | – | – | – |
| CC(C)C(CC(=O)OCC1(CO)C/C(=C\c2ccc(C(=O)O)cc2)C(=O)O1)C(C)C (configuration not stated) | 1.27 | – | 1.45 | 560 | 12.4 | 1.41 | 6.79 | 209 | 787 | 813 | 6900 | 710 | 3.8 | 117 | – | – | – | – |
| CC(C)C(CC(=O)OCC1(CO)C/C(=C\c2ccc(O)cc2)C(=O)O1)C(C)C (configuration not stated) | 0.5 | – | 0.4 | 2.95 | 3.2 | 0.67 | – | – | 1.99 | 1.18 | 9.4 | 1.48 | – | – | – | – | – | – |

Now from value to compound, other results behind:

| Selectivity ratio [2] | Selectivity ratio [3] | Selectivity ratio [4] | Kd [7] [nM] | Selectivity ratio [8] | Selectivity ratio [9] | Selectivity ratio [13] | Selectivity ratio [14] | SMILES | Ki [1] [nM] | Ki [5] [nM] | Ki [6] [nM] | Ki [10] [nM] | Ki [11] [µM] | Ki [12] [µM] | Selectivity ratio [15] | Ki [16] [nM] | Selectivity ratio [17] | Ki [18] [nM] |
| --- | --- | --- | --- | --- | --- | --- | --- | --- | --- | --- | --- | --- | --- | --- | --- | --- | --- | --- |
| 0.94 | – | 0.85 | 2.46 | 7.87 | 1.01 | – | – | CC(C)C(CC(=O)OCC1(CO)C/C(=C\c2cccc(O)c2)C(=O)O1)C(C)C (configuration not stated) | 2.48 | 2.08 | 19.4 | 2.32 | – | – | – | – | – | – |
| 1.7 | – | 1.5 | 1 | 17.3 | 0.9 | – | – | CC(C)CC(CC(=O)OCC1(CO)C/C(=C\c2ccccc2C(C(=O)OC(C)(C)C)C(=O)OC(C)(C)C)C(=O)O1)CC(C)C (configuration not stated) | 0.9 | 1.5 | 17.3 | 1.7 | – | – | – | – | – | – |
| 3.53 | – | 0.79 | 2.95 | 4.75 | 1.12 | 12.5 | 81 | CC(C)C(CC(=O)OCC1(CO)C/C(=C\c2ccccc2O)C(=O)O1)C(C)C (configuration not stated) | 3.29 | 2.33 | 14 | 10.4 | 0.037 | 0.239 | 21.3 | 63 | 224 | 661 |
| 2 | – | 1 | 0.6 | 17.5 | 1.17 | – | – | CC(C)CC(CC(=O)OCC1(CO)C/C(=C\c2ccc(C(C(=O)OC(C)(C)C)C(=O)OC(C)(C)C)cc2)C(=O)O1)CC(C)C (configuration not stated) | 0.7 | 0.6 | 10.5 | 1.2 | – | – | – | – | – | – |
| 2 | – | 1.2 | 0.5 | 17.6 | 1.2 | – | – | CC(C)CC(CC(=O)OCC1(CO)C/C(=C\c2cccc(C(C(=O)OC(C)(C)C)C(=O)OC(C)(C)C)c2)C(=O)O1)CC(C)C (configuration not stated) | 0.6 | 0.6 | 8.8 | 1 | – | – | – | – | – | – |

Reference: ChEMBL document CHEMBL3259571, “Diacylglycerol lactones targeting the structural features that distinguish the atypical C1 domains of protein kinase C ζ and ι from typical C1 domains” (J Med Chem, 2014)
